Test results reported in US10421774B2 (priority 2016, dated 2019).
pEC50: −log10 of the molar value.

What was measured:
Test in all cases: microbe, parasite or virus in culture
Assay type in all cases: cell-based, HIV-1
[1] = test system: NLRepRlucP373S recombinant wild type (WT) virus; settings: Human immunodeficiency virus 1, MT2, read-out: WT EC50
Protocol: (§1) Cells. MT-2 cells and 293T cells were obtained from the NIH AIDS Research and Reference Reagent Program. Cell lines were sub-cultured twice a week in either RPMI 1640 (MT-2) or DMEM (293T, HeLa) media supplemented with 10% heat inactivated fetal bovine serum (FBS), 100 units/mL of penicillin G and 100 μg/mL of streptomycin. The DMEM medium was additionally supplemented with 10 mM HEPES buffer, pH 7.55, 2 mM L-glutamine and 0.25 μg/mL of amphotericin B.
(§2) Viruses. NLRepRluc virus contains the Renilla luciferase marker in place of the viral nef gene. The proviral plasmid pNLRepRluc was constructed at Bristol-Myers Squibb, starting from a proviral NL4-3 clone (B subtype) that was obtained from the NIH AIDS Research and Reference Reagent Program. The parental recombinant wild type (WT) virus (NLRepRlucP373S) was derived from NLRepRluc and contains the additional substitution of P373 for serine in Gag (within the SP1 spacer), the most common 373 variation in subtype B. Other recombinant viruses (A364V, V370A/ΔT371 and the “T3325 triple” (T332S/V362I+HIV-1 protease R41G)) were generated by site-directed mutagenesis of plasmid pNLRepRlucP373S to introduce those amino acid substitutions in Gag and protease. Recombinant virus DNA was then used to generate virus stocks by transfection of 293T cells (Lipofectamine PLUS kit, Invitrogen). Titers of virus stocks were determined using a luciferase assay (Dual-Luciferase® Reporter Assay System, Promega, Milwaukee, Wis., USA) endpoint.
(§3) Multiple cycle drug susceptibility assay. Pellets of MT-2 cells were infected with NLRepRlucP373S Gag site-directed viruses, where initial inocula of the reporter strains were normalized using equivalent endpoint luciferase activity signals. Such cell-virus mixtures were resuspended in medium, incubated for 1-hour at 37° C./CO2, and added to compound containing 96-well plates at a final cell density of 10,000 cells per well. The test compounds were 3-fold serially diluted in 100% DMSO, and assayed at a final DMSO concentration of 1%. After 4-5 day incubation at 37° C./CO2, virus yields were determined by Renilla luciferase activity (Dual-Luciferase® Reporter Assay System, Promega). The endpoint luminescence was detected on a Wallac Trilux (PerkinElmer).
(§4) The 50% inhibitory concentrations (EC50S) were calculated by using the exponential form of the median effect equation where Percent Inhibition=1/[1+(EC50/drug conc.^m], where m is a parameter that reflects the slope of the concentration-response curve. Background was taken as the residual signal observed upon inhibition at the highest concentration of a control protease inhibitor, NFV (3 μM).
as §4, with “The 90%” for “The 50%”, “concentrations (EC90S)” for “concentrations (EC50S)”, “where ECF=[(F/(100−F)]^1/H·EC50,” for “where Percent Inhibition=1/[1+(EC50/drug conc.^m],”, “where H” for “where m”

[2] = test system: A364V site directed mutant virus; settings: Human immunodeficiency virus 1, MT2, read-out: A364V EC50
Protocol: as §1, §2, §3
(§5) HIV-1 NL4-3 expressing Renilla luciferase gene was converted to the gag V370A/ΔT371 virus by site directed mutagenesis. A364V is a site directed mutant.
(§6) All three recombinant viruses were used as described above in the HIV cell culture assay for the NL4-3 virus.

gag V370A/ΔT371 virus = settings: Human immunodeficiency virus 1, MT2, read-out: V370A/ΔT371 EC50
Protocol: as §1, §2, §3, §5, §6

[3] = test system: T332S/V362I/Pr R41G virus; settings: Human immunodeficiency virus 1, MT2, read-out: T332S/V362I/pr41G EC50
Protocol: as §1, §2, §3
T332sN362I/Pr R41G (N14.3, B Clade) virus′ was obtained as follows: Selection for resistance of HIV-1 strain […] virus with the HIV maturation inhibitor (MI) compound
At passage 8 virus was harvested and sequenced.
as §6

## C=C(C)[C@@H]1CC[C@]2(NCCN3CCS(=O)(=O)CC3)CC[C@]3(C)[C@H](CC[C@@H]4[C@@]5(C)CC=C(C6=CCC(COc7nsc(=O)[nH]7)(C(=O)O)CC6)C(C)(C)[C@@H]5CC[C@]43C)[C@@H]12 (stereo partly drawn) [Example 14, 4-((1R,3aS,5aR,5bR,7aR,11aS,11bR,13aR,13bR)-3a-((2-(1,1-dioxidothiomorpholino)ethyl)amino)-5a,5b,8,8,11a-pentamethyl-1-(prop-1-en-2-yl)-2,3,3a,4,5,5a,5b,6,7,7a,8,11,11a,11 b,12,13,13a,13b-octadecahydro-1H-cyclopenta[a]chrysen-9-yl)-1-(((5-oxo-4,5-dihydro-1,2,4-thiadiazol-3-yl)oxy)methyl)cyclohex-3-ene-1-carboxylic acid]
[1]
  pEC50: 7.57
[2]
  pEC50: < 7.30
Gag V370A/ΔT371 virus
  pEC50: < 7.30
[3]
  pEC50: < 7.30

## C=C(C)[C@@H]1CC[C@]2(NCCN3CCS(=O)(=O)CC3)CC[C@]3(C)[C@H](CC[C@@H]4[C@@]5(C)CC=C(C6=CC[C@@](COc7ccccn7)(C(=O)O)CC6)C(C)(C)[C@@H]5CC[C@]43C)[C@@H]12 [Example 31, (S)-4-((1R,3aS,5aR,5bR,7aR,11aS,11bR,13aR,13bR)-3a-((2-(1,1-dioxidothiomorpholino)ethyl)amino)-5a,5b,8,8,11a-pentamethyl-1-(prop-1-en-2-yl)-2,3,3a,4,5,5a,5b,6,7,7a,8,11,11a,11 b,12,13,13a,13b-octadecahydro-1H-cyclopenta[a]chrysen-9-yl)-1-((pyridin-2-yloxy)methyl)cyclohex-3-ene-1-carboxylic acid]
[1]
  pEC50: 8.70
[2]
  pEC50: 8.22
Gag V370A/ΔT371 virus
  pEC50: 8.05
[3]
  pEC50: 8.05

## C=C(C)[C@@H]1CC[C@]2(NC[C@@H](O)CO)CC[C@]3(C)[C@H](CC[C@@H]4[C@@]5(C)CC=C(C6=CC[C@](COc7ncccc7C(N)=O)(C(=O)O)CC6)C(C)(C)[C@@H]5CC[C@]43C)[C@@H]12 [Example A8, (R)-1-(((3-carbamoylpyridin-2-yl)oxy)methyl)-4-((1R,3aS,5aR,5bR,7aR,11aS,11bR,13aR,13bR)-3a-(((R)-2,3-dihydroxypropyl)amino)-5a,5b,8,8,11a-pentamethyl-1-(prop-1-en-2-yl)-2,3,3a,4,5,5a,5b,6,7,7a,8,11,11a,11b,12,13,13a,13b-octadecahydro-1H-cyclopenta[a]chrysen-9-yl)cyclohex-3-enecarboxylic acid]
[1]
  pEC50: 8.40
[2]
  pEC50: 6.75
Gag V370A/ΔT371 virus
  pEC50: 7.64
[3]
  pEC50: 7.64

## C=C(C)[C@@H]1CC[C@]2(NCCN3CCS(=O)(=O)CC3)CC[C@]3(C)[C@H](CC[C@@H]4[C@@]5(C)CC=C(C6=CCC(COc7nccc8ccc(OC)cc78)(C(=O)O)CC6)C(C)(C)[C@@H]5CC[C@]43C)[C@@H]12 (stereo partly drawn) [Example 35, 4-((1R,3aS,5aR,5bR,7aR,11aS,11bR,13aR,13bR)-3a-((2-(1,1-dioxidothiomorpholino)ethyl)amino)-5a,5b,8,8,11a-pentamethyl-1-(prop-1-en-2-yl)-2,3,3a,4,5,5a,5b,6,7,7a,8,11,11a,11 b,12,13,13a,13b-octadecahydro-1H-cyclopenta[a]chrysen-9-yl)-1-(((7-methoxyisoquinolin-1-yl)oxy)methyl)cyclohex-3-ene-1-carboxylic acid]
[1]
  pEC50: 8.15
[2]
  pEC50: 7.62
Gag V370A/ΔT371 virus
  pEC50: < 7.30
[3]
  pEC50: < 7.30

## C=C(C)[C@@H]1CC[C@]2(NCCN3CCS(=O)(=O)CC3)CC[C@]3(C)[C@H](CC[C@@H]4[C@@]5(C)CC=C(C6=CCC(CCOc7nccc(OC)n7)(C(=O)O)CC6)C(C)(C)[C@@H]5CC[C@]43C)[C@@H]12 (stereo partly drawn) [Example A27, 4-((1R,3aS,5aR,5bR,7aR,11aS,11bR,13aR,13bR)-3a-((2-(1,1-dioxidothiomorpholino)ethyl)amino)-5a,5b,8,8,11a-pentamethyl-1-(prop-1-en-2-yl)-2,3,3a,4,5,5a,5b,6,7,7a,8,11,11a,11b,12,13,13a,13b-octadecahydro-1H-cyclopenta[a]chrysen-9-yl)-1-(2-((4-methoxypyrimidin-2-yl)oxy)ethyl)cyclohex-3-ene-1-carboxylic acid]
[1]
  pEC50: 7.66
[2]
  pEC50: < 7.30
Gag V370A/ΔT371 virus
  pEC50: < 7.30
[3]
  pEC50: 5.52

## C=C(C)[C@@H]1CC[C@]2(NCCN3CCS(=O)(=O)CC3)CC[C@]3(C)[C@H](CC[C@@H]4[C@@]5(C)CC=C(C6=CCC(COc7ncccc7C#N)(C(=O)O)CC6)C(C)(C)[C@@H]5CC[C@]43C)[C@@H]12 (stereo partly drawn) [Example 36, 1-(((3-cyanopyridin-2-yl)oxy)methyl)-4-((1R,3aS,5aR,5bR,7aR,11aS,11bR,13aR,13bR)-3a-((2-(1,1-dioxidothiomorpholino)ethyl)amino)-5a,5b,8,8,11a-pentamethyl-1-(prop-1-en-2-yl)-2,3,3a,4,5,5a,5b,6,7,7a,8,11,11a,11b,12,13,13a,13b-octadecahydro-1H-cyclopenta[a]chrysen-9-yl)cyclohex-3-ene-1-carboxylic acid]
[1]
  pEC50: 8.52
[2]
  pEC50: 8.30
Gag V370A/ΔT371 virus
  pEC50: 7.96
[3]
  pEC50: 7.96

## C=C(C)[C@@H]1CC[C@]2(NCCN3CCS(=O)(=O)CC3)CC[C@]3(C)[C@H](CC[C@@H]4[C@@]5(C)CC=C(C6=CCC(COc7cccc(C(N)=O)n7)(C(=O)O)CC6)C(C)(C)[C@@H]5CC[C@]43C)[C@@H]12 (stereo partly drawn) [Example 40, 1-(((6-carbamoylpyridin-2-yl)oxy)methyl)-4-((1R,3aS,5aR,5bR,7aR,11aS,11bR,13aR,13bR)-3a-((2-(1,1-dioxidothiomorpholino)ethyl)amino)-5a,5b,8,8,11a-pentamethyl-1-(prop-1-en-2-yl)-2,3,3a,4,5,5a,5b,6,7,7a,8,11,11a,11b,12,13,13a,13b-octadecahydro-1H-cyclopenta[a]chrysen-9-yl)cyclohex-3-ene-1-carboxylic acid]
[1]
  pEC50: 8.40
[2]
  pEC50: 6.57
Gag V370A/ΔT371 virus
  pEC50: 6.63
[3]
  pEC50: 6.63

## C=C(C)[C@@H]1CC[C@]2(NCCN3CCS(=O)(=O)CC3)CC[C@]3(C)[C@H](CC[C@@H]4[C@@]5(C)CC=C(C6=CCC(COc7cnnn7-c7ccccc7)(C(=O)O)CC6)C(C)(C)[C@@H]5CC[C@]43C)[C@@H]12 (stereo partly shown) [Example 16]
[1]
  pEC50: 8.30
[2]
  pEC50: 7.49
Gag V370A/ΔT371 virus
  pEC50: 7.52
[3]
  pEC50: 7.52

## C=C(C)[C@@H]1CC[C@]2(NC[C@H](O)COC)CC[C@]3(C)[C@H](CC[C@@H]4[C@@]5(C)CC=C(C6=CC[C@](COc7ncccc7C(N)=O)(C(=O)O)CC6)C(C)(C)[C@@H]5CC[C@]43C)[C@@H]12 [Example A12, (R)-1-(((3-carbamoylpyridin-2-yl)oxy)methyl)-4-((1R,3aS,5aR,5bR,7aR,11aS,11bR,13aR,13bR)-3a-(((S)-2-hydroxy-3-methoxypropyl)amino)-5a,5b,8,8,11a-pentamethyl-1-(prop-1-en-2-yl)-2,3,3a,4,5,5a,5b,6,7,7a,8,11,11a,11b,12,13,13a,13b-octadecahydro-1H-cyclopenta[a]chrysen-9-yl)cyclohex-3-enecarboxylic acid]
[1]
  pEC50: 8.70
[2]
  pEC50: 7.16
Gag V370A/ΔT371 virus
  pEC50: 7.23
[3]
  pEC50: 7.23

## C=C(C)c1cc(OCC2(C(=O)O)CC=C(C3=CC[C@]4(C)[C@H]5CC[C@@H]6[C@H]7[C@H](C(=C)C)CC[C@]7(NCCN7CCS(=O)(=O)CC7)CC[C@@]6(C)[C@]5(C)CC[C@H]4C3(C)C)CC2)ns1 (stereo partly shown) [Example 18]
[1]
  pEC50: 8.70
[2]
  pEC50: 7.96
Gag V370A/ΔT371 virus
  pEC50: > 7.30
[3]
  pEC50: 7.85
